Our source for the EC50 and IC50 values is patent US20250368627A1, “PYRAZOLESULFONAMIDES AS ANTITUMOR AGENTS” (Peloton Therapeutics, Inc., a fully owned subsidiary of …, priority 2019, published 2025).

A value given as a limit tells only on which side of the number the result lay.

A word on the EC50: it is the midpoint of the concentration-response curve. A word on the IC50: it is the concentration at which inhibition is half-maximal.

For test [1], the system named is HCT116 human colorectal carcinoma cells. Put plainly: CellTiter-Glo Luminescent Cell Viability Assay. Conditions: HCT-116, 72 h, 3 days. The format is cell-based. An outline of the steps:
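CellTiter-Glo luminescence gave viability after 3 days of compound exposure in HCT116 cells grown in DMEM/10% FBS. Final concentrations ran from 5 to 0.0002 […] in 1:3 steps, each in triplicate, with IC50 derived from the curves.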
On the technique in general: In ATP-based viability assays light output follows the ATP content of the culture.

In test [2] the target is T1, DDB1DB/DCAF15 and RBM39 R1R2 complex (Homo sapiens, UniProt Q14498+Q66K64).
T1 construct: Amino acids 150 to 331 of RBM39 were cloned into pGEX4T3; GST (from vector pGEX4T3); TEV cleavage site (N); made in house; host or cells: DDB1DB/His-DCAF15: baculovirus/Sf9 co-expression; RBM39 R1R2: E. coli (pGEX4T3)
T1 sequence (Q66K64 whole entry, the tested form may be a part): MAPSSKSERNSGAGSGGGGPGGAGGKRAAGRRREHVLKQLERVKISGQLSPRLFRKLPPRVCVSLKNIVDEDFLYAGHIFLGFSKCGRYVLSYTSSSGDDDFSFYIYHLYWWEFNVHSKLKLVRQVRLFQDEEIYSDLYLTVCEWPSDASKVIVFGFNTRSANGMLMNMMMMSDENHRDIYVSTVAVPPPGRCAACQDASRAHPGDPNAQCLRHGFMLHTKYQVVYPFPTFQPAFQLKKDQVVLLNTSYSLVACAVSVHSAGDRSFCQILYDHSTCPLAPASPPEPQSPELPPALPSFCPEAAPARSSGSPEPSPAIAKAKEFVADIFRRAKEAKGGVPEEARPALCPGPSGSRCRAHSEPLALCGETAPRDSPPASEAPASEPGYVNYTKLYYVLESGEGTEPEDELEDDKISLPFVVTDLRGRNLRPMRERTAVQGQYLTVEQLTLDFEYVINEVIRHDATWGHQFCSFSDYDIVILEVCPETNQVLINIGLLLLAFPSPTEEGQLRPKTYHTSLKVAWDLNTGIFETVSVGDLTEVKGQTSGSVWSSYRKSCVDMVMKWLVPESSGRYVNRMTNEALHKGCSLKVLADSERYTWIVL
T1 sequence (Q14498 150-331): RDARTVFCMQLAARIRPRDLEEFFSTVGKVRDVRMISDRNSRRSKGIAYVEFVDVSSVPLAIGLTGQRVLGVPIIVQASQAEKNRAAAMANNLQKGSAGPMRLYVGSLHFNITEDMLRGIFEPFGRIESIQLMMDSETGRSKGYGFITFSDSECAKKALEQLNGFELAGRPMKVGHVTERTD
T1 sequence (Q16531 with tags, fused parts or gaps DEL396-708 partner): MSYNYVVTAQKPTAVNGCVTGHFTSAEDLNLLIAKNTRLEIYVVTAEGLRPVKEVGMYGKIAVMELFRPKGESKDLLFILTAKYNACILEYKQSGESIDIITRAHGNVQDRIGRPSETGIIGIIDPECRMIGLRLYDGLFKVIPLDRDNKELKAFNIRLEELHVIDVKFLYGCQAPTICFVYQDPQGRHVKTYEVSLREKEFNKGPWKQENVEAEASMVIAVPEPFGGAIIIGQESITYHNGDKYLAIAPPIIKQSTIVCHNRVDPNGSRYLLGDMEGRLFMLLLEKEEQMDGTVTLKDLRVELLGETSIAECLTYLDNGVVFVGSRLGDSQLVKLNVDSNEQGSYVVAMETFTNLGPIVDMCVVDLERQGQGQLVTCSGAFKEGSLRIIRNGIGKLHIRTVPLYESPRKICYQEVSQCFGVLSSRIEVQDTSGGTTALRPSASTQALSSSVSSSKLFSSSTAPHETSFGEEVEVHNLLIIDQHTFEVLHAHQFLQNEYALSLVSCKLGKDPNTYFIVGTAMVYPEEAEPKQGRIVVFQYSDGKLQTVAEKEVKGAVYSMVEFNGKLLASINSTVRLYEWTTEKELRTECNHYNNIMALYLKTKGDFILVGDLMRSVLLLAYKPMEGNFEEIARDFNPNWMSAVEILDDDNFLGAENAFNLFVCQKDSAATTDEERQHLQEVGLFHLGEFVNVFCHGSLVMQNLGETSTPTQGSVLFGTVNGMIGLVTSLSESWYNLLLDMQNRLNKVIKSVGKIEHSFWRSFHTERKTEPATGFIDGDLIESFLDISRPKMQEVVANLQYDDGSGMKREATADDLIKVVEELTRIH
Put plainly: DCAF15 RBM39 Complex Formation Assay (FRET). The format is binding. Conditions: FRET ratio Em 665/Em 615, incubated overnight at 4° C. An outline of the steps: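 Ternary complex formation read by TR-FRET (Em 665/615, excitation 340 nm) after overnight incubation at 4° C of 20 nM baculovirus DDB1DB/His-DCAF15 and 50 nM E. coli RBM39 RRM1-RRM2 FLAG fragment with 14-point, 3-fold compound dilutions from 1 μM; EC50 from 4-parameter fit.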

Regarding `C[C@@H](O)[C@H](C)n1cc(S(=O)(=O)Nc2ccc(F)c3c(C#N)c[nH]c23)cn1` [Compound 233, N-(3-cyano-4-fluoro-1H-indol-7-yl)-1-[(1S,2R)-2-hydroxy-1-methyl-propyl]pyrazole-4-sulfonamide], in test [1], the EC50 fell in the range of 250 to 1000 nM. The IC50 in test [2] is < 250 nM.
On to `Cc1ccc(NS(=O)(=O)c2cnn([C@@H](C)[C@@H](C)O)c2)c2[nH]cc(C#N)c12` [Compound 234, N-(3-cyano-4-methyl-1H-indol-7-yl)-1-[(1S,2R)-2-hydroxy-1-methyl-propyl]pyrazole-4-sulfonamide], for which the EC50 in test [1] is < 250 nM. For the same compound, the IC50 in test [2] is < 250 nM.
Regarding `CC(C)(CO)n1cc(S(=O)(=O)Nc2cccc3c(C#N)c[nH]c23)cn1` [Compound 235, N-(3-cyano-1H-indol-7-yl)-1-(2-hydroxy-1,1-dimethyl-ethyl)pyrazole-4-sulfonamide], the EC50 in test [1] is 250 to 1000 nM. For the same compound, in test [2], the IC50 is < 250 nM.
Regarding `Cc1ccc(NS(=O)(=O)c2cnn(C(C)CCO)c2)c2[nH]cc(C#N)c12` (stereo not shown) [Compound 236, N-(3-cyano-4-methyl-1H-indol-7-yl)-1-(3-hydroxy-1-methyl-propyl)pyrazole-4-sulfonamide], the EC50 in test [1] was < 250 nM. Moreover, in test [2], the IC50 is < 250 nM.
For the compound `CC(CCO)n1cc(S(=O)(=O)Nc2ccc(Cl)c3c(C#N)c[nH]c23)cn1` (stereo not shown) [Compound 237, N-(4-chloro-3-cyano-1H-indol-7-yl)-1-(3-hydroxy-1-methyl-propyl)pyrazole-4-sulfonamide], the EC50 in test [1] was < 250 nM. The IC50 in test [2] was < 250 nM.
As to `N#Cc1c[nH]c2c(NS(=O)(=O)c3cnn([C@@H](CO)CF)c3)ccc(Cl)c12` [Compound 238, N-(4-chloro-3-cyano-1H-indol-7-yl)-1-[(1S)-1-(fluoromethyl)-2-hydroxy-ethyl]pyrazole-4-sulfonamide], in test [1], the EC50 was in the range of 250 to 1000 nM. Also, the IC50 in test [2] was < 250 nM.
On to `Cc1ccc(NS(=O)(=O)c2cnn(C)c2CCO)c2[nH]cc(C#N)c12` [Compound 239, N-(3-cyano-4-methyl-1H-indol-7-yl)-5-(2-hydroxyethyl)-1-methyl-pyrazole-4-sulfonamide], for which the EC50 in test [1] is > 1000 nM. In addition, in test [2], the IC50 was < 250 nM.
`CC(C)(C(N)=O)n1cc(S(=O)(=O)Nc2ccc(F)c3c(C#N)c[nH]c23)cn1` [Compound 240, 2-[4-[(3-cyano-4-fluoro-1H-indol-7-yl)sulfamoyl]pyrazol-1-yl]-2-methyl-propanamide]: in test [1], the EC50 is > 1000 nM. Also, the IC50 in test [2] is < 250 nM.
Regarding `Cc1ccc(NS(=O)(=O)c2cnn(C(C)(C)C(N)=O)c2)c2[nH]cc(C#N)c12` [Compound 241, 2-[4-[(3-cyano-4-methyl-1H-indol-7-yl)sulfamoyl]pyrazol-1-yl]-2-methyl-propanamide], the EC50 in test [1] fell in the range of 250 to 1000 nM. Besides, the IC50 in test [2] is < 250 nM.
Take `Cc1ccc(NS(=O)(=O)c2cnn(C(C)CC(C)(C)O)c2)c2[nH]cc(C#N)c12` (stereo not shown) [Compound 242, N-(3-cyano-4-methyl-1H-indol-7-yl)-1-(3-hydroxy-1,3-dimethyl-butyl)pyrazole-4-sulfonamide]: in test [1], the EC50 was < 250 nM. Also, the IC50 in test [2] is < 250 nM.
On to `CC(CC(C)(C)O)n1cc(S(=O)(=O)Nc2ccc(Cl)c3c(C#N)c[nH]c23)cn1` (stereo not shown) [Compound 243, N-(4-chloro-3-cyano-1H-indol-7-yl)-1-(3-hydroxy-1,3-dimethyl-butyl)pyrazole-4-sulfonamide], for which, in test [1], the EC50 fell in the range of 250 to 1000 nM. Also, the IC50 in test [2] was < 250 nM.
Consider `Cc1ccc(NS(=O)(=O)c2cnn(C(C)(C)CO)c2Cl)c2[nH]cc(C#N)c12` [Compound 244, 5-chloro-N-(3-cyano-4-methyl-1H-indol-7-yl)-1-(2-hydroxy-1,1-dimethyl-ethyl)pyrazole-4-sulfonamide], for which the EC50 in test [1] was < 250 nM. The IC50 in test [2] is < 250 nM.
As for `CC(C)(CO)n1ncc(S(=O)(=O)Nc2ccc(F)c3c(C#N)c[nH]c23)c1Cl` [Compound 245, 5-chloro-N-(3-cyano-4-fluoro-1H-indol-7-yl)-1-(2-hydroxy-1,1-dimethyl-ethyl)pyrazole-4-sulfonamide], in test [1], the EC50 lay in the range of 250 to 1000 nM. Further, in test [2], the IC50 was < 250 nM.
The matching figures for `Cc1ccc(NS(=O)(=O)c2cnn([C@@H](CO)CF)c2)c2[nH]cc(C#N)c12` [Compound 246, N-(3-cyano-4-methyl-1H-indol-7-yl)-1-[(1S)-1-(fluoromethyl)-2-hydroxy-ethyl]pyrazole-4-sulfonamide]: 250 to 1000 nM and < 250 nM.
As to `N#Cc1c[nH]c2c(NS(=O)(=O)c3cnn([C@@H](CO)CF)c3)ccc(F)c12` [Compound 247], the EC50 in test [1] was > 1000 nM. Besides, the IC50 in test [2] was < 250 nM.
Regarding `N#Cc1c[nH]c2c(NS(=O)(=O)c3cnn(C[C@H](N)C(F)(F)F)c3)ccc(Cl)c12` [Compound 248, 1-[(2S)-2-amino-3,3,3-trifluoro-propyl]-N-(4-chloro-3-cyano-1H-indol-7-yl)pyrazole-4-sulfonamide], the EC50 in test [1] lay in the range of 250 to 1000 nM. Further, the IC50 in test [2] is < 250 nM.
Turning to `Cc1ccc(NS(=O)(=O)c2cnn(C[C@H](N)C(F)(F)F)c2)c2[nH]cc(C#N)c12` [Compound 249, 1-[(2S)-2-amino-3,3,3-trifluoro-propyl]-N-(3-cyano-4-methyl-1H-indol-7-yl)pyrazole-4-sulfonamide], the EC50 in test [1] lay within 250 to 1000 nM. Besides, in test [2], the IC50 was < 250 nM.
As to `CC(C)(CO)n1ncc(S(=O)(=O)Nc2ccc(Cl)c3c(C#N)c[nH]c23)c1Cl` [Compound 250, 5-chloro-N-(4-chloro-3-cyano-1H-indol-7-yl)-1-(2-hydroxy-1,1-dimethyl-ethyl)pyrazole-4-sulfonamide], the EC50 in test [1] is < 250 nM. In test [2], the IC50 was < 250 nM.
Take `CC(C)(CO)n1ncc(S(=O)(=O)Nc2cccc3c(C#N)c[nH]c23)c1Cl` [Compound 251, 5-chloro-N-(3-cyano-1H-indol-7-yl)-1-(2-hydroxy-1,1-dimethyl-ethyl)pyrazole-4-sulfonamide]: the EC50 in test [1] lay within 250 to 1000 nM. Also, in test [2], the IC50 is < 250 nM.
As to `Cc1ccc(NS(=O)(=O)c2cn(C(C)(C)CO)nc2Cl)c2[nH]cc(C#N)c12` [Compound 252, 3-chloro-N-(3-cyano-4-methyl-1H-indol-7-yl)-1-(2-hydroxy-1,1-dimethyl-ethyl)pyrazole-4-sulfonamide], in test [1], the EC50 is 250 to 1000 nM. Moreover, in test [2], the IC50 was < 250 nM.
As to `CC(C)(CO)n1cc(S(=O)(=O)Nc2cccc3c(C#N)c[nH]c23)c(Cl)n1` [Compound 253, 3-chloro-N-(3-cyano-1H-indol-7-yl)-1-(2-hydroxy-1,1-dimethyl-ethyl)pyrazole-4-sulfonamide], the half-maximal effective concentration (EC50) in test [1] is > 1000 nM. Also, the IC50 in test [2] is < 250 nM.
`CC(C)(C)OC(=O)N1CC(F)(Cn2cc(S(=O)(=O)Nc3ccc(Cl)c4c(C#N)c[nH]c34)cn2)C1` [Compound 254, tert-butyl 3-[[4-[(4-chloro-3-cyano-1H-indol-7-yl)sulfamoyl]pyrazol-1-yl]methyl]-3-fluoro-azetidine-1-carboxylate]: in test [1], the EC50 is 250 to 1000 nM. Further, the IC50 in test [2] was < 250 nM.
With `Cc1ccc(NS(=O)(=O)c2cnn(CC3(F)CN(C(=O)OC(C)(C)C)C3)c2)c2[nH]cc(C#N)c12` [Compound 255, tert-butyl 3-[[4-[(3-cyano-4-methyl-1H-indol-7-yl)sulfamoyl]pyrazol-1-yl]methyl]-3-fluoro-azetidine-1-carboxylate], the EC50 in test [1] was 250 to 1000 nM. In addition, the IC50 in test [2] was < 250 nM.
As for `N#Cc1c[nH]c2c(NS(=O)(=O)c3cnn(CC4(F)CNC4)c3)ccc(Cl)c12` [Compound 256, N-(4-chloro-3-cyano-1H-indol-7-yl)-1-[(3-fluoroazetidin-3-yl)methyl]pyrazol-4-sulfonamide], in test [1], the EC50 is > 1000 nM. The IC50 in test [2] was < 250 nM.
In the case of `Cc1ccc(NS(=O)(=O)c2cnn(CC3(F)CNC3)c2)c2[nH]cc(C#N)c12` [Compound 257, N-(3-cyano-4-methyl-1H-indol-7-yl)-1-[(3-fluoroazetidin-3-yl)methyl]pyrazole-4-sulfonamide], the EC50 in test [1] was in the range of 250 to 1000 nM. Moreover, the IC50 in test [2] is < 250 nM.
For `Cc1ccc(NS(=O)(=O)c2cnn(CC(C)(C)CO)c2)c2[nH]cc(C#N)c12` [Compound 258, N-(3-cyano-4-methyl-1H-indol-7-yl)-1-(3-hydroxy-2,2-dimethylpropyl)-1H-pyrazole-4-sulfonamide], in test [1], the EC50 is < 250 nM. In addition, the IC50 in test [2] is < 250 nM.
Consider `CC(C)(CO)n1cc(S(=O)(=O)Nc2ccc(Cl)c3c(C#N)c[nH]c23)c(Cl)n1` [Compound 260, 3-chloro-N-(4-chloro-3-cyano-1H-indol-7-yl)-1-(2-hydroxy-1,1-dimethyl-ethyl)pyrazole-4-sulfonamide], for which, in test [1], the EC50 is > 1000 nM. In addition, the IC50 in test [2] is < 250 nM.
Regarding `CC(C)(CO)n1cc(S(=O)(=O)Nc2ccc(F)c3c(C#N)c[nH]c23)c(Cl)n1` [Compound 261, 3-chloro-N-(3-cyano-4-fluoro-1H-indol-7-yl)-1-(2-hydroxy-1,1-dimethyl-ethyl)pyrazole-4-sulfonamide], in test [1], the EC50 is > 1000 nM. Also, the IC50 in test [2] was < 250 nM.
As to `COCC(CO)n1cc(S(=O)(=O)Nc2ccc(Cl)c3c(C#N)c[nH]c23)cn1` (stereo not shown) [Compound 262, N-(4-chloro-3-cyano-1H-indol-7-yl)-1-[1-(hydroxymethyl)-2-methoxy-ethyl]pyrazole-4-sulfonamide], the EC50 in test [1] fell in the range of 250 to 1000 nM. In test [2], the IC50 is < 250 nM.
